Laboratory results taken from publication PMC12697290, “Identification of novel PTP1B inhibitor for the treatment of LPS-induced myocardial apoptosis: machine learning based virtual screening and biological evaluation” (Journal of Enzyme Inhibition and Medicinal Chemistry, 2025).

Assays:
PTP1B [1] = molecular target: T1, PTP1B (Homo sapiens, UniProt P18031); assay: pNPP hydrolysis, absorbance at […] nm; format: biochemical; design: gene PTPN1; isolated enzyme; details: 5 mM pNPP, 50 mM Hepes, 1 mM DTT, pH 7.0, 37 °C; 10 μM compound
T1 sequence (P18031 1-435): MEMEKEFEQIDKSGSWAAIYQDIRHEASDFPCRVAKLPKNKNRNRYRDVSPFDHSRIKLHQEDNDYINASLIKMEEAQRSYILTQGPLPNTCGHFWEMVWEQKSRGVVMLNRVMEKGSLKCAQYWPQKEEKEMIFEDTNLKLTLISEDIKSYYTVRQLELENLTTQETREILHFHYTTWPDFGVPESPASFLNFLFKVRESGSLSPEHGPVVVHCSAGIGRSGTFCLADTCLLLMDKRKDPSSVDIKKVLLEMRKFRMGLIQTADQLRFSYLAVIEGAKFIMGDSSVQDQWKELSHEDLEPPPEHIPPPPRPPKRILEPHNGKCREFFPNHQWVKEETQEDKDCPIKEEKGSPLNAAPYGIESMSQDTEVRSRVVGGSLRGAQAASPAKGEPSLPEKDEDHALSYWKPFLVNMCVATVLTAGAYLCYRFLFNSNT

PTP1B [2] = molecular target: T1, PTP1B; assay: pNPP hydrolysis, absorbance at […] nm; format: biochemical; design: gene PTPN1; isolated enzyme
TCPTP [3] = molecular target: T2, TCPTP (Homo sapiens, UniProt P17706); assay: phosphatase inhibition assay (protocol printed for PTP1B: pNPP, […] nm); format: biochemical; design: gene PTPN2; isolated enzyme
T2 sequence (P17706 1-415): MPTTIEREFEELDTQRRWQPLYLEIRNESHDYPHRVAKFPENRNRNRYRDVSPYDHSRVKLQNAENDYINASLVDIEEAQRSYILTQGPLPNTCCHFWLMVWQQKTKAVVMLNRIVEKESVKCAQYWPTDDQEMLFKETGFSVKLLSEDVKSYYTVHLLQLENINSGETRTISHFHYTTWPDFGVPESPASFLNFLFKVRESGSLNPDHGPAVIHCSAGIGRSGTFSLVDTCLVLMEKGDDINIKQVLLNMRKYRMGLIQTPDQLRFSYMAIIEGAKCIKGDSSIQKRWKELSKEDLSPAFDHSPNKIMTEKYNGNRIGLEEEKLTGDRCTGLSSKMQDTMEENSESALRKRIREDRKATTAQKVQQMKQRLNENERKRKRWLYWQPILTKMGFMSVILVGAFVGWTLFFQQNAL

TCPTP [4] = molecular target: T2, TCPTP; assay: cellular thermal shift assay (CETSA), Western blot; format: cell-based; design: gene PTPN2; endogenous protein in AC16 human cardiomyocytes, detected by Western blot (antibody 11214-1-AP); details: AC16 cells
[5] = molecular target: T3, acidic phosphatase (ACP1) (Homo sapiens, UniProt P24666); assay: phosphatase inhibition assay (protocol printed for PTP1B: pNPP, […] nm); format: biochemical; details: conditions not stated separately for ACP1
T3 construct: isolated enzyme
T3 sequence (P24666 2-158): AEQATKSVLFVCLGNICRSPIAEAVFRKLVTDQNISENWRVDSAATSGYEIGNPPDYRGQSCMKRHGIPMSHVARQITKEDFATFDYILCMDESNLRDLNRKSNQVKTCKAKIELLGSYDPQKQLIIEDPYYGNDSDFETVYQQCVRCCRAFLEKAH

PTP1B [6] = molecular target: T1, PTP1B; assay: cellular thermal shift assay (CETSA), Western blot; format: cell-based; design: gene PTPN1; endogenous protein in AC16 human cardiomyocytes, detected by Western blot (antibody 11334-1-AP); details: AC16 cells

IC50 (PTP1B [2]) [µM]	IC50 (TCPTP [3]) [µM]	IC50 [5] [µM]	SMILES	inhibitory rate at 20 μM (PTP1B [1])	CETSA stabilisation (TCPTP [4])	CETSA stabilisation (PTP1B [6])
			CO/N=C(\C(=O)N[C@@H]1C(=O)N2C(C(=O)O)=C(CSc3nc(=O)c(O)nn3C)CS[C@H]12)c1csc(N)n1 [PI-1]	compounds PI-1, PI-2 and PI-7 displayed a moderate to potent inhibitory activity against PTP1B		
4.1 ± 0.3	5.9 ± 2.4	> 20	N#C/C(=C\c1ccc(OCC(=O)O)cc1)c1nc2ccccc2[nH]1 [PI-2]	95.6%	PI-2 could effectively enhance the PTP1B and TCPTP stability in vitro	PI-2 could effectively enhance the PTP1B and TCPTP stability in vitro
			O=C(O)COCC(=O)Nc1cc(SCC(O)CO)cc([N+](=O)[O-])c1 (centres unmarked) [PI-7]	compounds PI-1, PI-2 and PI-7 displayed a moderate to potent inhibitory activity against PTP1B		
